Experimental data published in patent US20260286396A1, “AXL KNOCK OUT CAR T CELLS AND METHODS FOR USE THEREOF” (priority 2023, published 2026).

System: CART19 cells
Experiment: RNA sequencing of CART19 cells with Ingenuity pathway analysis (pathways, upstream regulators)
Format: cell-based, human
Experimental: CART19 cells were isolated using CD4 and CD8 microbeads to […] the JeKo-1 target cells; this isolation step was performed twice to eliminate the possible contamination of JeKo-1 cells. RNA was isolated from the CART19 cells using QIAGEN RNEASY® Plus Mini Kit. RNA was further treated with DNase I (QIAGEN) and purified using RNA Clean & Concentrator (Zymo Research). […] The fastq files were viewed in FastQC to check for quality (Cox et al., Mol Ther., 29 (4): 1529-1540, 2020). After verifying the lack of adapter sequences with FastQC, Cutadapt (Martin, EMBnet, 17:10-12, 2011) was used to filter for reads greater than 32 base pairs. Output files were re-checked for quality using FastQC. The latest human reference genome (GRCh38.p13) was downloaded from NCBI. Genome index files were generated using STAR (Cox et al. 2020, supra, and Dobin et al., Bioinformatics, 29:15-21, 2012). Paired end reads from fastq files were mapped to the genome for each condition. HTSeq was used to generate expression counts for each gene (Cox et al. 2020, supra; and Putri et al., Bioinformatics, 38:2943-2945, 2022). […] The disruption efficiency of the CRISPR/Cas9 GM-CSF knockout was determined using targeted sequencing through PCR and TIDE analysis (software available at tide.nki.nl) as described elsewhere (Sakemura et al. 2021, supra).
RNA sequencing of CART19 cells was then performed. […] Data were analyzed with the use of QIAGEN Ingenuity Pathway Analysis (IPA) (digitalinsights.qiagen.com/IPA; Krämer et al., Bioinformatics 30 (4): 523-530, 2014).

[1] = Upstream Regulator KLF11, 30 nM, 24 hours vs vehicle
[2] = Upstream Regulator LAMA4, 30 nM, 24 hours vs vehicle
[3] = Upstream Regulator LARP1, flag bias, 30 nM, 24 hours vs vehicle
[4] = Upstream Regulator MFSD2A, 30 nM, 24 hours vs vehicle
[5] = Upstream Regulator MSC, 30 nM, 24 hours vs vehicle
[6] = Upstream Regulator MYC, 30 nM, 24 hours vs vehicle
[7] = Upstream Regulator MYCN, 30 nM, 24 hours vs vehicle
[8] = Upstream Regulator NELFB, 30 nM, 24 hours vs vehicle
[9] = Upstream Regulator NFAT5, 30 nM, 24 hours vs vehicle
[10] = Upstream Regulator NR3C1, 30 nM, 24 hours vs vehicle
[11] = Upstream Regulator NT5E, 30 nM, 24 hours vs vehicle
[12] = Upstream Regulator NUPR1, 30 nM, 24 hours vs vehicle
[13] = Upstream Regulator PAX5, 30 nM, 24 hours vs vehicle
[14] = Upstream Regulator PDGFB, 30 nM, 24 hours vs vehicle
[15] = Upstream Regulator REL, 30 nM, 24 hours vs vehicle
[16] = Upstream Regulator RXRB, 30 nM, 24 hours vs vehicle
[17] = Upstream Regulator SATB1, 30 nM, 24 hours vs vehicle
[18] = Upstream Regulator SHC1, 30 nM, 24 hours vs vehicle
[19] = Upstream Regulator SMAD3, 30 nM, 24 hours vs vehicle
[20] = Upstream Regulator STAT3, 30 nM, 24 hours vs vehicle
[21] = Upstream Regulator STAT6, 30 nM, 24 hours vs vehicle
[22] = Upstream Regulator STIM1, 30 nM, 24 hours vs vehicle
[23] = Upstream Regulator SYK, 30 nM, 24 hours vs vehicle
[24] = Upstream Regulator TAFAZZIN, 30 nM, 24 hours vs vehicle
[25] = Upstream Regulator TCF3, 30 nM, 24 hours vs vehicle
[26] = Upstream Regulator TCF12, 30 nM, 24 hours vs vehicle
[27] = Upstream Regulator TCR, 30 nM, 24 hours vs vehicle
[28] = Upstream Regulator TFRC, 30 nM, 24 hours vs vehicle
[29] = Upstream Regulator TGF BETA, 30 nM, 24 hours vs vehicle
[30] = Upstream Regulator TGFB2, 30 nM, 24 hours vs vehicle
[31] = Upstream Regulator TIGIT, 30 nM, 24 hours vs vehicle
[32] = Upstream Regulator TLR9, 30 nM, 24 hours vs vehicle
[33] = Upstream Regulator TNF, 30 nM, 24 hours vs vehicle
[34] = Upstream Regulator USP38, 30 nM, 24 hours vs vehicle
[35] = Upstream Regulator ZBTB16, 30 nM, 24 hours vs vehicle
[36] = upstream regulator ACE, CART19 stimulated with JeKo-1, 30 nM TP-0903 vs vehicle, 24 hours
[37] = upstream regulator AMBRA1, CART19 stimulated with JeKo-1, 30 nM TP-0903 vs vehicle, 24 hours
[38] = upstream regulator CCR2, CART19 stimulated with JeKo-1, 30 nM TP-0903 vs vehicle, 24 hours
[39] = upstream regulator CIP2A, CART19 stimulated with JeKo-1, 30 nM TP-0903 vs vehicle, 24 hours
[40] = upstream regulator ERBB3, CART19 stimulated with JeKo-1, 30 nM TP-0903 vs vehicle, 24 hours
[41] = upstream regulator HGF, CART19 stimulated with JeKo-1, 30 nM TP-0903 vs vehicle, 24 hours
[42] = upstream regulator IKBKG, CART19 stimulated with JeKo-1, 30 nM TP-0903 vs vehicle, 24 hours
[43] = upstream regulator IL7, CART19 stimulated with JeKo-1, 30 nM TP-0903 vs vehicle, 24 hours
[44] = upstream regulator PPARD, CART19 stimulated with JeKo-1, 30 nM TP-0903 vs vehicle, 24 hours
[45] = upstream regulator SMAD4, CART19 stimulated with JeKo-1, 30 nM TP-0903 vs vehicle, 24 hours

CN1CCN(Cc2ccc(Nc3ncc(Cl)c(Nc4ccccc4S(=O)(=O)N(C)C)n3)cc2)CC1 [TP-0903, Dubermatinib]
Expr Log Ratio [1]: −0.037
Predicted Activation State [1]: inhibited
Activation Z-Score [2]: 2.985
Expr Log Ratio [2]: −1.478
Predicted Activation State [2]: activated
Expr Log Ratio (Upstream Regulator LARP1, 30 nM, 24 hours vs vehicle): −0.22
Activation Z-Score [3]: 3.461
Predicted Activation State [3]: activated
Expr Log Ratio (Upstream Regulator MED12, 30 nM, 24 hours vs vehicle): 0.075
Activation Z-Score (Upstream Regulator MEK, 30 nM, 24 hours vs vehicle): −1.682
Activation Z-Score [4]: 2.219
Expr Log Ratio [4]: −0.204
Predicted Activation State [4]: activated
Activation Z-Score (Upstream Regulator MIR-34A-5P (AND OTHER MIRNAS W/SEED GGCAGUG), flag bias, 30 nM, 24 hours vs vehicle): 0.22
Activation Z-Score (Upstream Regulator MIR-155-5P (MIRNAS W/SEED UAAUGCU), flag bias, 30 nM, 24 hours vs vehicle): 1.95
Activation Z-Score (Upstream Regulator MIR-155, 30 nM, 24 hours vs vehicle): 0.713
Activation Z-Score [5]: 0.707
Expr Log Ratio [5]: 0.103
Activation Z-Score [6]: −1.663
Expr Log Ratio [6]: −0.584
Activation Z-Score [7]: −2.592
Expr Log Ratio [7]: −0.217
Predicted Activation State [7]: inhibited
Activation Z-Score [8]: −1
Expr Log Ratio [8]: 0.032
Activation Z-Score [9]: −0.466
Expr Log Ratio [9]: −0.006
Activation Z-Score [10]: 0.182
Expr Log Ratio [10]: 0.097
Activation Z-Score [11]: 0.447
Expr Log Ratio [11]: 0.513
Activation Z-Score [12]: 0.396
Expr Log Ratio [12]: 1.017
Activation Z-Score [13]: −1.01
Expr Log Ratio [13]: −0.607
Activation Z-Score (Upstream Regulator PDGF BB, 30 nM, 24 hours vs vehicle): −0.275
Activation Z-Score [14]: −1.513
Expr Log Ratio [14]: 0.018
Activation Z-Score (Upstream Regulator PKA, 30 nM, 24 hours vs vehicle): −1.077
Activation Z-Score (Upstream Regulator PKC(S), 30 nM, 24 hours vs vehicle): 1.03
Expr Log Ratio (Upstream Regulator POU2F2, 30 nM, 24 hours vs vehicle): −0.143
Activation Z-Score (Upstream Regulator POU2F2, flag bias, 30 nM, 24 hours vs vehicle): −1
Activation Z-Score [15]: −0.988
Expr Log Ratio [15]: 0.266
Activation Z-Score [16]: 1.155
Expr Log Ratio [16]: −0.076
Activation Z-Score [17]: −1.359
Expr Log Ratio [17]: −0.104
Activation Z-Score [18]: 0.963
Expr Log Ratio [18]: 0.076
Activation Z-Score [19]: −1.454
Expr Log Ratio [19]: 0.337
Activation Z-Score [20]: −1.117
Expr Log Ratio [20]: 0.116
Activation Z-Score [21]: −2.16
Expr Log Ratio [21]: −0.088
Predicted Activation State [21]: inhibited
Activation Z-Score [22]: −3
Expr Log Ratio [22]: 0.123
Predicted Activation State [22]: inhibited
Activation Z-Score [23]: −1.203
Expr Log Ratio [23]: −0.298
Activation Z-Score [24]: 0
Expr Log Ratio [24]: −0.111
Activation Z-Score [25]: −0.213
Expr Log Ratio [25]: −0.061
Activation Z-Score [26]: −0.207
Expr Log Ratio [26]: 0.077
Activation Z-Score [27]: −2.683
Predicted Activation State [27]: inhibited
Activation Z-Score [28]: 2.335
Expr Log Ratio [28]: −0.051
Predicted Activation State [28]: activated
Activation Z-Score [29]: −2.031
Predicted Activation State [29]: inhibited
Activation Z-Score [30]: −1.591
Expr Log Ratio [30]: −1.361
Activation Z-Score [31]: −1.982
Expr Log Ratio [31]: 0.2
Activation Z-Score [32]: −0.796
Expr Log Ratio [32]: −0.186
Activation Z-Score [33]: −2.543
Predicted Activation State [33]: inhibited
Expr Log Ratio (Upstream Regulator TP53, 30 nM, 24 hours vs vehicle): 0.089
Activation Z-Score [34]: −1.213
Expr Log Ratio [34]: −0.109
Activation Z-Score [35]: −0.683
Expr Log Ratio [35]: −0.061
Activation Z-Score [36]: 1
Expr Log Ratio [36]: −1.023
Activation Z-Score [37]: 1.808
Expr Log Ratio [37]: −0.003
Activation Z-Score [38]: 0.314
Expr Log Ratio [38]: −1.545
Activation Z-Score [39]: 0
Expr Log Ratio [39]: 0.131
Activation Z-Score [40]: −1
Expr Log Ratio [40]: −1.599
Expr Log Ratio (upstream regulator GPD1, CART19 stimulated with JeKo-1, 30 nM TP-0903 vs vehicle, 24 hours): 0.348
Activation Z-Score [41]: −0.973
Expr Log Ratio [41]: −0.131
Activation Z-Score [42]: −0.788
Expr Log Ratio [42]: 0.136
Activation Z-Score [43]: −0.288
Expr Log Ratio [43]: 0.684
Activation Z-Score (upstream regulator LET-7A-5P (AND OTHER MIRNAS W/SEED GAGGUAG), flag bias, CART19 stimulated with JeKo-1, 30 nM TP-0903 vs vehicle, 24 hours): 1.25
Activation Z-Score (upstream regulator NFKB (COMPLEX), CART19 stimulated with JeKo-1, 30 nM TP-0903 vs vehicle, 24 hours): −1.386
Activation Z-Score (upstream regulator PI3K (COMPLEX), CART19 stimulated with JeKo-1, 30 nM TP-0903 vs vehicle, 24 hours): −1.952
Activation Z-Score [44]: −0.089
Expr Log Ratio [44]: −0.036
Activation Z-Score (upstream regulator SCGB1A1, CART19 stimulated with JeKo-1, 30 nM TP-0903 vs vehicle, 24 hours): 1.993
Activation Z-Score [45]: −0.02
Expr Log Ratio [45]: −0.097
Activation Z-Score (upstream regulator TFPI2, CART19 stimulated with JeKo-1, 30 nM TP-0903 vs vehicle, 24 hours): 1.131
